# Patent publication US6846801B1, “Systemic administration of a therapeutic preparation” (AstraZeneca AB, priority 1993, dated 2005)
# Experiments:
# rats = test: Rat model: powder inhaled, blood glucose compared with insulin formulations without enhancer; type: in vivo; settings: for improvement in absorption of insulin: in vivo model; on Effect: key: +: significant decrease in blood glucose level; (+): moderate decrease in blood glucose level; −: no or very small decrease in blood glucose level
# Procedure: Each of the compounds listed in Table III was tested for its ability to enhance uptake of insulin, and thus affect blood glucose levels, in a rat model. Various forms of insulin were employed: recombinant or semisynthetic human or bovine. Each formulation was prepared as above, drying and processing the insulin/enhancer or insulin/enhancer/lactose solution to produce an inhalable powder.
# The powder was administered to rats by inhalation, and the blood glucose levels of the rats were subsequently monitored. These levels were compared to the corresponding values obtained from rats which had inhaled insulin formulations without enhancer.
# [1] = tested on: CaCo-2 epithelial cell monolayer; test: In vitro transport of insulin and markers across CaCo-2 epithelial cell monolayer; type: in vitro ADME; settings: 60 min, 37° C.
# From the text: A standard in vitro assay utilizing an epithelial cell line, CaCo-2 (available through the American Type Culture Collection (ATCC), Rockville, Md., USA), has been developed to assess the ability of various enhancer compounds to promote transport of insulin and other markers across an epithelial cell monolayer, as a model for the epithelial cell layer which functions in the lung to separate the alveolus from the pulmonary blood supply. In this assay, the enhancer and insulin or other marker are dissolved in aqueous solution at various proportions and/or concentrations, and applied to the apical side of the cell monolayer. After 60 min incubation at 37° C. and 95% RH (relative humidity), the amount of the marker on the basolateral side of the cells is determined: for example, by use of a radioactively labelled marker. […] This is true even when insulin is added to the enhancer/mannitol mixture (1:3 sodium caprate:insulin, by weight) (FIG. 9). This concentration of sodium caprate (16 mM) was also found to promote absorption of insulin across the cell monolayer. The amount of insulin which passed across the monolayer doubled in the presence of 16 mM sodium caprate, compared to the amount in the absence of any enhancer. […]
# [2] = rats, inhaled powder, Enhancer:Insulin:lactose 2:4:94
# [3] = rats, inhaled powder, Enhancer:Insulin:lactose 4:4:92
# [4] = rats, inhaled powder, Enhancer:Insulin:lactose 25:75:0
# [5] = tested as enhancer in the method of the invention, animal (rat) model
compound,measurement,setting,value
CCCCCCCCCC(=O)OC[C@H](COP(=O)([O-])OCC[N+](C)(C)C)OC(=O)CCCCCCCCC [Didecanoylphospatidylcholine],Effect,"rats; rats, inhaled powder, Enhancer:Insulin:lactose 4:4:94",−
CC(=O)OC1CC2(C)C(CC(O)C3C4(C)CCC(O)C(C)C4CCC32C)C1=C(CCCC(C)C)C(=O)NCCS(=O)(=O)O (stereo not shown) [Sodium taurodihydrofusidate],performance as enhancer of insulin absorption in the lung (in words),"rats; rat, in vivo",effectively enhance insulin absorption in the lung
same,Effect,rats; [2],+
C[C@H](CCC(=O)NCC(=O)[O-])[C@H]1CC[C@H]2[C@@H]3[C@H](O)C[C@@H]4C[C@H](O)CC[C@]4(C)[C@H]3C[C@H](O)[C@]12C.[Na+] [Sodium glycocholate],performance as enhancer of insulin absorption in the lung (in words),"rats; rat, in vivo",effectively enhance insulin absorption in the lung
same,Effect,rats; [3],+
CCCCCCCCCCCC(=O)[O-].[Na+] [Sodium laurate],Effect,rats; [4],(+)
same,performance as enhancer of insulin absorption in the lung (in words),rats; [5],perform well
CCCCCCCC(=O)OCC(COP(=O)([O-])OCC[N+](C)(C)C)OC(=O)CCCCCCC (stereo not shown) [Dioctanoylphosphatidylcholine],Effect,rats; [2],(+)
CCCCCCCCCCCCCC(=O)[O-].[Na+] [Sodium myristate],Effect,"rats; rats, inhaled powder, Enhancer:Insulin:lactose 30:70:0",+
same,performance as enhancer of insulin absorption in the lung (in words),rats; [5],perform well
C[C@H](CCC(=O)[O-])[C@H]1CC[C@H]2[C@@H]3[C@@H](O)C[C@@H]4C[C@H](O)CC[C@]4(C)[C@H]3CC[C@]12C.[Na+] [Sodium ursodeoxycholate],performance as enhancer of insulin absorption in the lung (in words),"rats; rat, in vivo",effectively enhance insulin absorption in the lung
same,Effect,rats; [3],+
CCCCCCCCCC(=O)[O-].[K+] [Potassium caprate],Effect,"rats; rats, inhaled powder, Enhancer:Insulin:lactose 27:73:0",+
same,performance as enhancer of insulin absorption in the lung (in words),rats; [5],effective
CCCCCCCC/C=C\CCCCCCCC(=O)[O-].[K+] [Potassium oleate],Effect,rats; [3],+
CCCCCCCC(=O)[O-].[Na+] [Sodium caprylate],Effect,rats; [4],−
C[C@H](CCC(=O)NCCS(=O)(=O)O)[C@H]1CC[C@H]2[C@@H]3[C@H](O)C[C@@H]4C[C@H](O)CC[C@]4(C)[C@H]3C[C@H](O)[C@]12C [Sodium taurocholate],Effect,"rats; rat, in vivo",+
same,performance as enhancer of insulin absorption in the lung (in words),"rats; rat, in vivo",effectively enhance insulin absorption in the lung
Lysophosphatidylcholine,Effect,rats; [3],+
same,performance as enhancer of insulin absorption in the lung (in words),rats; [5],effective enhancer
CCCCCCCCOC1O[C@H](CO)[C@@H](O)[C@H](O)[C@H]1O (stereo partly shown) [Octylglucopyranoside],performance as enhancer of insulin absorption in the lung (in words),"rats; rat, in vivo",some absorption enhancing properties
same,Effect,rats; [3],(+)
CCCCCCCCCC(=O)[O-].[Na+] [Sodium caprate],improvement in absorption of insulin,rats; insulin/sodium caprate 50/50 w/w (50% sodium caprate),Significant improvement
same,improvement in absorption of insulin,rats; insulin/sodium caprate 75/25 w/w (25% sodium caprate),Significant improvement
same,improvement in absorption of insulin,rats; insulin/sodium caprate 82.5/17.5 w/w (17.5% sodium caprate),intermediate
same,improvement in absorption of insulin,rats; insulin/sodium caprate 90/10 w/w (10% sodium caprate),poor improvement
same,Effect,rats; [3],+
same,Effect,"rats; rats, inhaled powder, Enhancer:Insulin:lactose 10:90:0",(+)
same,Effect,"rats; rats, inhaled powder, Enhancer:Insulin:lactose 17.5:82.5:0",(+)
same,Effect,rats; [4],+
same,performance as enhancer of insulin absorption in the lung (in words),rats; [5],perform well
same,"amount of insulin which passed across the monolayer, compared to absence of any enhancer","[1]; 16 mM sodium caprate, apical to basolateral",doubled
same,amount of marker (mannitol) which appears on the basolateral side,"[1]; at least up to 16 mM sodium caprate, FIG. 8",dependent upon the concentration of enhancer used
Lysine caprate,Effect,"rats; rats, inhaled powder, Enhancer:Insulin:lactose 35:65:0",+
same,performance as enhancer of insulin absorption in the lung (in words),rats; [5],effective
Dimethyl-β-cyclodextrin,performance as enhancer of insulin absorption in the lung (in words),"rats; rat, in vivo",absorption enhancing effect
same,Effect,"rats; rats, inhaled powder, Enhancer:Insulin:lactose 75:25:0",+
